Data: patent publication US11389414B2, “Methods for treating atherosclerosis with gamma-ketoaldehyde scavengers” (Vanderbilt University, priority 2017, dated 2022)

What was measured:
[1] = test system: hypercholesterolemic Ldlr^−/− mice; experiment: Atherosclerosis analysis (Oil-Red-O proximal aorta cross-sections and en face aorta) in western diet fed mice; assay type: in vivo, mouse; details: western diet 16 weeks; for reduction of atherosclerosis, en face analysis of the aorta / reduction of the extent of proximal aortic atherosclerosis: 1 g/L in water
Procedure: (§1) Mice: Ldlr^−/− and WT on C57BL/6 background mice were obtained from the Jackson Laboratory. Animal protocols were performed according to the regulations of Vanderbilt University's Institutional Animal Care and Usage Committee. Mice were maintained on chow or a Western-type diet containing 21% milk fat and 0.15% cholesterol (Teklad). Eight week old, female mice were pretreated mice with vehicle alone (Water) or containing either 1 g/L of 4-HOBA or 1 g/L of 2-HOBA. After two weeks, the mice continued to receive treatment and were administered a Western diet for 16 weeks to induce hypercholesterolemia and atherosclerosis.
(§2) Atherosclerosis Analyses and Cross-section Immunofluorescence Staining: The extent of atherosclerosis was examined both in Oil-Red-O-stained cross-sections of the proximal aorta and by en face analysis using the KS300 imaging system (Kontron Elektronik GmbH). For immunofluorescence staining, 5 μm cross-sections of the proximal aorta were fixed in cold acetone (Sigma), blocked in Background Buster (Innovex), incubated with indicated primary antibodies (MDA and CD68) at 4° C. for overnight. After incubation with fluorescent labeled secondary antibodies at 37 C for 1 hour, the nucleus was counter stained with Hoechst. Images were captured with a fluorescence microscope (Olympus IX81) and SlideBook 6 (Intelligent-Image) software and quantitated using ImageJ software (NIH).

MDA-apoAI adducts = experiment: Plasma apoAI immunoprecipitation and western blotting for MDA-apoAI and apoAI; assay type: in vivo, mouse; details: western diet 16 weeks
Procedure: as §1
Measurement of MDA-LDL, MDA-HDL, and MDA-ApoAI: Sandwich ELISA was used to measure plasma MDA-LDL and MDA-HDL levels following the manufacturer's instructions (Cell BioLabs, Inc.). Briefly, isolated LDL or HDL samples and MDA-HDL standards were added onto anti-MDA coated plates, and after blocking, the samples were incubated with biotinylated anti-apoB or anti-ApoAI primary antibody. The samples were then incubated for 1 h with streptavidin-enzyme conjugate and 15 min with substrate solution. After stopping the reaction, the O.D. was measured at 450 nm wavelength. MDA-ApoAI was detected in mouse plasma by immunoprecipitation of ApoAI and western blotting. Briefly, 50 μl of mouse plasma were prepared with 450 μL of IP Lysis Buffer (Pierce) plus 0.5% protease inhibitor mixture (Sigma), and immunoprecipitated with 10 μg of polyclonal antibody against mouse ApoAI (Novus). Then 25 μL of magnetic beads (Invitrogen) was added, and the mixture was incubated for 1 h at 4° C. with rotation. The magnetic beads were then collected, washed three times, and SDS-PAGE sample buffer with β-mercaptoethanol was added to the beads. After incubation at 70° C. for 5 min, magnetic field was applied to the Magnetic Separation Rack (New England), and the supernatant was used for detecting mouse ApoAI or MDA. For Western blotting, 30-60 μg of proteins was resolved by NuPAGE Bis-Tris electrophoresis (Invitrogen), and transferred onto nitrocellulose membranes (Amersham Bioscience). Membranes were probed with primary rabbit antibodies specific for ApoAI (Novus) or MDA (Cell signaling) and fluorescent tagged IRDye 680 (LI-COR) secondary antibody. Proteins were visualized and quantitated by Odyssey 3.0 Quantification software (LI-COR).

[2] = background statement; cited from earlier work
[3] = background statement; cited from earlier work; remark: listed apart in the source
[4] = Body weight and plasma total cholesterol and triglyceride levels of treated mice; assay type: in vivo, mouse; details: compared to vehicle or 4-HOBA; data not shown
Procedure: as §1

[5] = test system: MDA content of proximal aortic atherosclerotic lesions in Ldlr^−/− mice; experiment: MDA immunofluorescence of proximal aortic atherosclerotic lesions; assay type: in vivo, mouse
Procedure: as §1, §2

[6] = test system: atherosclerotic lesions of Ldlr^−/− mice; experiment: Masson's Trichrome staining of lesions (collagen content, fibrous cap thickness, necrotic core); assay type: in vivo, mouse
Procedure: as §1
Masson's Trichrome Staining: Masson's Trichrome Staining was applied for measurement of atherosclerotic lesion collagen content, fibrous cap thickness and necrotic core size following the manufacture's instruction (Sigma) and as previously described. Briefly, 5 μm cross-sections of proximal atherosclerotic aorta root were fixed with Bouin's solution, stained with hematoxylin for nuclei (black), biebrich scarlet and phosphotungstic/phosphomolybdic acid for cytoplasm (red), and aniline blue for collagen (blue). Images were captured and analyzed for collagen content, atherosclerotic cap thickness and necrosis core by ImageJ software as described earlier.

[7] = test system: atherosclerotic lesions of Ldlr^−/− mice; experiment: Lesion apoptosis (TUNEL) and efferocytosis in proximal aorta sections; assay type: in vivo, mouse
Procedure: as §1
(§3) In vitro Cellular Apoptosis and Analysis of Lesion Apoptosis and Efferocytosis: Cell apoptosis was induced as indicated and detected by fluorescent labeled Annexin V staining and quantitated by either Flow Cytometry (BD 5 LSRII) or counting Annexin V positive cells in images captured under a fluorescent microscope. The apoptotic cells in atherosclerotic lesion were measured by TUNEL staining of cross-sections of atherosclerotic proximal aorta as previously described. The TUNEL positive cells not associated with live macrophages were considered free apoptotic cells and macrophage-associated apoptotic cells were considered phagocytosed as a measure of lesion efferocytosis as previously described.

primary macrophages = experiment: H2O2 induced apoptosis, Annexin V staining, macrophages; assay type: cell-based, mouse; details: 250 μM H2O2, 24 h; compared to vehicle or 4-HOBA
Procedure: (§4) Cell Culture: Peritoneal macrophages were isolated from mice 72 hours post injection of 3% thioglycollate and maintained in DMEM plus 10% fetal bovine serum (FBS, Gibco) as previously described. Human aortic endothelial cells (HAECs) were obtained from Lonza and maintained in endothelial cell basal medium-2 plus 1% FBS and essential growth factors (Lonza).
as §3

aortic endothelial cells = experiment: H2O2 induced apoptosis, Annexin V staining, endothelial cells; assay type: cell-based, mouse; details: 250 μM H2O2, 24 h; compared to vehicle or 4-HOBA
Procedure: as §4, §3

peritoneal macrophages = experiment: Macrophage inflammatory response, real time PCR of IL-1β, IL-6, TNF-α mRNA; assay type: cell-based, mouse; details: oxidized LDL, 24 h
Procedure: as §4
RNA Isolation and Real-Time RT-PCR: Total RNA was extracted and purified using Aurum Total RNA kit (Bio-Rad) according to the manufacturer's protocol. Complementary DNA was synthesized with iScript reverse transcriptase (Bio-Rad). Relative quantitation of the target mRNA was performed using specific primers, SYBR probe (Bio-Rad), and iTaqDNA polymerase (Bio-Rad) on IQ5 thermocylcer (Bio-Rad) and normalized with 18S, as described earlier. 18S, IL-1β and TNF-α primers used were as described earlier.

MDA-LDL adducts = experiment: Plasma MDA-LDL sandwich ELISA; assay type: in vivo, mouse; details: western diet 16 weeks
Procedure: as §1
(§5) Measurement of MDA-LDL, MDA-HDL, and MDA-ApoAI: Sandwich ELISA was used to measure plasma MDA-LDL and MDA-HDL levels following the manufacturer's instructions (Cell BioLabs, Inc.). Briefly, isolated LDL or HDL samples and MDA-HDL standards were added onto anti-MDA coated plates, and after blocking, the samples were incubated with biotinylated anti-apoB or anti-ApoAI primary antibody. The samples were then incubated for 1 h with streptavidin-enzyme conjugate and 15 min with substrate solution. After stopping the reaction, the O.D. was measured at 450 nm wavelength. MDA-ApoAI was detected in mouse plasma by immunoprecipitation of ApoAI and western blotting. […] Proteins were visualized and quantitated by Odyssey 3.0 Quantification software (LI-COR).

MDA-HDL adducts = experiment: Plasma MDA-HDL sandwich ELISA; assay type: in vivo, mouse; details: western diet 16 weeks
Procedure: as §1, §5

[8] = test system: ApoE−/− macrophage foam cells; experiment: Capacity of HDL isolated from treated mice to reduce macrophage cholesterol; assay type: cell-based, mouse; details: HDL 25 μg protein/ml, 24 h
Procedure: as §1
HDL Isolation from Mouse Plasma and Measurement of HDL Capacity to Reduce Macrophage Cholesterol: HDL was isolated from mouse plasma using HDL Purification Kit (Cell BioLabs, Inc.) following the manufacturer's protocol. Briefly, apoB containing lipoproteins and HDL were sequentially precipitated with dextran sulfate. The HDL was then resuspended and washed. After removing the dextran sulfate, the HDL was dialyzed against PBS. To measure the capacity of the HDL to reduce macrophage cholesterol, apoE^−/− macrophages were cholesterol enriched by incubation for 48 h in DMEM containing 100 μg protein/ml of acetylated LDL. […] Cellular cholesterol was measured before and after incubation with HDL using an enzymatic cholesterol assay as described.

macrophages = experiment: In vitro modification of LDL with MDA, then macrophage cholesterol content; assay type: cell-based; details: 2-HOBA present during LDL (5 mg/mL) modification with MDA (10 mM); versus vehicle; LDL with macrophages 24 h
Procedure: Modification of HDL and LDL with MDA: MDA was prepared immediately before use by rapid acid hydrolysis of maloncarbonyl bis-(dimethylacetal) as described. Briefly, 20 μL of 1 M HCl was added to 200 μL of maloncarbonyl bis-(dimethylacetal), and the mixture was incubated for 45 min at room temperature. The MDA concentration was determined by absorbance at 245 nm, using the coefficient factor 13, 700 M-1 cm-1. HDL (10 mg of protein/mL) and increasing doses of MDA (0, 0.125 mM, 0.25 mM, 0.5 mM, 1 mM) were incubated at 37° C. for 24 h in 50 mM sodium phosphate buffer (pH7.4) containing DTPA 100 μM. Reactions were initiated by adding MDA and stopped by dialysis of samples against PBS at 4° C. LDL (5 mg/mL) was modified in vitro with MDA (10 mM) in the presence of vehicle alone or with 2-HOBA at […] for 24 h in 50 mM sodium phosphate buffer (pH7.4) containing DTPA 100 μM. Reactions were initiated by adding MDA and stopped by dialysis of samples against PBS at 4° C. The LDL samples were incubated for 24 h with macrophages and the cholesterol content of the cells was measured using an enzymatic cholesterol assay as described.

[9] = background statement; cited from earlier work; remark: listed apart in the source
[10] = compared to Ldlr−/− mice consuming a chow diet
[11] = summary value, compared to vehicle or 4-HOBA
[12] = in contrast to vehicle or 4-HOBA

## NCc1ccc(O)cc1 [4-HOBA, 4-hydroxybenzylamine, reference compound]
[1]; Ldlr−/− mice
  atheroprotection: not atheroprotective
MDA-apoAI adducts; [10]
  plasma apoAI levels: reduced
  plasma levels of MDA-apoAI: markedly increased
[2]
  reaction with lipid dicarbonyls (dicarbonyl scavenger): ineffective
[3]
  oral bioavailability: orally bioavailable

## NCc1ccccc1O [2-HOBA, 2-hydroxybenzylamine]
[1]; compared to 4-HOBA
  reduction of atherosclerosis, en face analysis of the aorta: 59.1%
  reduction of the extent of proximal aortic atherosclerosis: 31.5%
[1]; compared to vehicle
  reduction of atherosclerosis, en face analysis of the aorta: 60.3%
  reduction of the extent of proximal aortic atherosclerosis: 31.1%
[1]; [11]
  decrease of atherosclerosis in en face aortas: 60%
  decrease of atherosclerosis in the proximal aortas: 31%
[4]
  effect on body weight: did not affect
[5]; compared to 4-HOBA
  reduction of MDA levels in the proximal aorta: 66.8%
[5]; compared to vehicle alone
  reduction of MDA levels in the proximal aorta: 68.5%
[6]; compared to 4-HOBA
  increase of collagen content of the proximal aorta: 2.6 fold
[6]; compared to vehicle
  increase of collagen content of the proximal aorta: 2.7 fold
[6]; summary value
  increased collagen content: 2.7 fold
  increased fibrous cap thickness: 2.1 fold
[6]; summary value, p<0.01
  reduction in necrotic core: 69%
[6]; versus 4-HOBA
  decrease of % necrotic area in the proximal aorta: 73.5%
[6]; versus 4-HOBA treated mice
  fibrous cap thickness, fold greater: 2.29 fold
[6]; versus vehicle
  decrease of % necrotic area in the proximal aorta: 74.8%
[6]; versus vehicle treated mice
  fibrous cap thickness, fold greater: 2.31 fold
[7]; 4-HOBA treated mice versus 2-HOBA treated mice
  number of TUNEL positive cells not associated with macrophages, fold increase (efferocytosis): 2.0 fold
[7]; compared to 4-HOBA
  reduction of the number of TUNEL positive cells in the proximal aortic lesion: 72.4%
[7]; compared to vehicle
  reduction of the number of TUNEL positive cells in the proximal aortic lesion: 72.9%
[7]; summary value, compared to 4-HOBA or vehicle treated mice
  reduction of the number of atherosclerotic lesion TUNEL positive cells: 72%
[7]; vehicle treated mice versus 2-HOBA treated mice
  number of TUNEL positive cells not associated with macrophages, fold increase (efferocytosis): 1.9 fold
Primary macrophages
  number of apoptotic cells in macrophage cultures: markedly decreased
Aortic endothelial cells
  number of apoptotic cells in endothelial cell cultures: markedly decreased
Peritoneal macrophages
  IL-1β mRNA level: significantly reduced
  IL-6 mRNA level: significantly reduced
  TNF-α mRNA level: significantly reduced
MDA-LDL adducts; compared to 4-HOBA
  reduction of plasma MDA-LDL levels: 54%
MDA-LDL adducts; compared to vehicle
  reduction of plasma MDA-LDL levels: 57%
MDA-HDL adducts; compared to 4-HOBA
  reduction of plasma MDA-HDL levels: 56%
MDA-HDL adducts; compared to vehicle
  reduction of plasma MDA-HDL levels: 57%
MDA-apoAI adducts; [12]
  plasma MDA-apoAI adducts: dramatically reduced
  plasma apoAI levels: increased
[8]; versus 4-HOBA treated mice
  efficiency of HDL from treated mice at reducing cholesterol stores in macrophage foam cells, fold: 1.7 fold
[8]; versus vehicle treated mice
  efficiency of HDL from treated mice at reducing cholesterol stores in macrophage foam cells, fold: 2.2 fold
macrophages
  ability of MDA modified LDL to increase cholesterol accumulation in macrophages: reduced
[2]
  reaction with lipid dicarbonyls (dicarbonyl scavenger): rapidly reacts
[9]
  reaction with lipid monocarbonyls: not with lipid monocarbonyls
[3]
  oral bioavailability: orally bioavailable
